Assay [1] concerns the target T1, recombinant H. influenzae IgA1P (variant A1) (Haemophilus influenzae, UniProt P44969). Format: biochemical. To be noted: up to 100 μM.
In assay [2] the target is T1, recombinant H. influenzae IgA1P (variant A1). Kind of assay: biochemical.

Each structure is given as a SMILES string.

As to `NCCc1ccc(S(=O)(=O)F)cc1` [Pefablock], in assay [1], the “Inhibition of recombinant H. influenzae IgA1P” value was “did not inhibit”. Broadly, the IC50 is the concentration that gives 50% inhibition. Turning to `O=c1oc(Cl)c(Cl)c2ccccc12` [DCIC, 3,4-dichloroisocoumarin], the IC50 in assay [2] amounted to 6 ± 1 nM. As for `O=S(=O)(F)Cc1ccccc1` [PMSF], in assay [1], the “Inhibition of recombinant H. influenzae IgA1P” value is reported as “did not inhibit”. Take `Oc1nsnc1N1CCOCC1` [Compound 1a, 4-morpholin-4-yl-1,2,5-thiadiazol-3-ol]: the IC50 in assay [2] was above 100000 nM.

The values above are taken from paper PMC6625846 (ACS infectious diseases, 2019).
